Experimental data as given in publication PMC8844856, “Structural basis of cyclic oligoadenylate binding to the transcription factor Csa3 outlines cross talk between type III and type I CRISPR systems” (The Journal of Biological Chemistry, 2022).
Entries after “also recorded” stand apart in the source; their conditions may differ.

How the values were obtained:
His6-Csa3Sso (WT) [1] = biological target: T1, His6-Csa3Sso (WT) (Saccharolobus solfataricus, UniProt Q97Y88); experiment: Microscale thermophoresis (MST) binding of cOA ligands to wildtype Csa3Sso
T1 construct: made in house; host or cells: E. coli BL21(DE3)-pLysS
T1 sequence (Q97Y88 1-237): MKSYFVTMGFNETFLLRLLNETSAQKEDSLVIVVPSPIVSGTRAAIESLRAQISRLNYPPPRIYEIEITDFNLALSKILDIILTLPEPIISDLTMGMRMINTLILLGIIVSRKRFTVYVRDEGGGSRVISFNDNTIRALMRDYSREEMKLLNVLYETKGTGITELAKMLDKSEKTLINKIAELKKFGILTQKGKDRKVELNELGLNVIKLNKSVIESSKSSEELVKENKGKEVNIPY
Experimental: (§1) The ligand-binding specificity of Csa3Sso (WT) and the role of Csa3Sso residues in ligand binding were determined by microscale Thermophoresis (MST). Wildtype or mutant His6-Csa3Sso (200 nM) was fluorescently labeled in 2× binding buffer (10 mM Na/K phosphate, pH 5.8, 10 mM MgCl2, 25 mM NaCl, and 0.05% Tween 20) using 100 nM RED-Tris NTA His-Tag labeling dye (Nanotemper Technologies, Inc) and incubated in the dark at room temperature for 30 min. Two millimolar stocks of synthetic ligands including cA3, cA4, and cA6 (Biolog Life Science Institute) or linear ribonucleotide 5′-rCrArArArA-3′ (Bio-Synthesis Inc) were serially diluted in a 1:1 ratio with nuclease-free water. The labeled proteins were then mixed with ligands in a 1:1 ratio. Only cA4 was used in the MST experiments with the Csa3Sso mutants (2 mM stocks of cA4 were used for F10A, F14A, G96A, and R98A mutants, and 20 μM stocks were used for E122A and E122Q mutants). The mixtures of proteins and ligands were incubated in the dark at room temperature for 30 min. The precipitated material was removed by centrifugation at 6000 rpm for 5 min. The supernatants were then loaded into Monolith NT.115 Series Premium capillaries in triplicate, and the thermophoresis was detected with 40% excitation power and 40% IR-laser power for an on-time of 20 s at 25 °C.
(§2) The binding affinities of oligonucleotides and PCas4a to Csa3Sso (WT and mutants) were analyzed according to the law of mass action in a standard fitting mode of MO.Affinity analysis software (version 2.3).

Csa3bSis = biological target: Csa3bSis; design: method as in PMID 32983033; details: surface plasmon resonance; cited from earlier work
[2] = tested on: Csa3bSis binding to the Pcsa1 promoter; design: method as in PMID 32983033; details: in the presence of the cA4 analog in vitro; cited from earlier work
Csa3Sso F10A mutant = biological target: T2, Csa3Sso F10A mutant (Saccharolobus solfataricus, UniProt Q97Y88, F10A); experiment: MST binding of cA4 to Csa3Sso F10A mutant; details: Fig. 4E
T2 construct: made in house; host or cells: E. coli BL21(DE3)-pLysS (pET21b)
Experimental: as §1, with “The mixtures of proteins and ligands were incubated in the dark at room temperature for 30 min. The precipitated material was removed by centrifugation at 6000 rpm for 5 min.” left out
as §2

Csa3Sso F14A mutant = biological target: T3, Csa3Sso F14A mutant (Saccharolobus solfataricus, UniProt Q97Y88, F14A); experiment: MST binding of cA4 to Csa3Sso F14A mutant; details: Fig. 4E
T3 construct: made in house; host or cells: E. coli BL21(DE3)-pLysS (pET21b)
Experimental: as §1, with “The mixtures of proteins and ligands were incubated in the dark at room temperature for 30 min. The precipitated material was removed by centrifugation at 6000 rpm for 5 min.” left out
as §2

Csa3Sso G96A mutant = biological target: T4, Csa3Sso G96A mutant (Saccharolobus solfataricus, UniProt Q97Y88, G96A); experiment: MST binding of cA4 to Csa3Sso G96A mutant; details: Fig. 4E
T4 construct: made in house; host or cells: E. coli BL21(DE3)-pLysS (pET21b)
Experimental: as §1, with “The mixtures of proteins and ligands were incubated in the dark at room temperature for 30 min. The precipitated material was removed by centrifugation at 6000 rpm for 5 min.” left out
as §2

Csa3Sso R98A mutant = biological target: T5, Csa3Sso R98A mutant (Saccharolobus solfataricus, UniProt Q97Y88, R98A); experiment: MST binding of cA4 to Csa3Sso R98A mutant; details: Fig. 4E
T5 construct: made in house; host or cells: E. coli BL21(DE3)-pLysS (pBB75)
Experimental: as §1, with “The mixtures of proteins and ligands were incubated in the dark at room temperature for 30 min. The precipitated material was removed by centrifugation at 6000 rpm for 5 min.” left out
as §2

Csa3Sso = biological target: T6, Csa3Sso (Saccharolobus solfataricus, UniProt Q97Y88); experiment: Ring nuclease activity assay (C18 HPLC), wildtype Csa3Sso; type: biochemical; details: 3 h
T6 construct: made in house; host or cells: E. coli BL21(DE3)-pLysS
T6 sequence (Q97Y88 1-237): T1 sequence (Q97Y88 1-237)
Experimental: (§3) […]. The reaction mixtures were deproteinized by ultrafiltration with an Amicon Ultra 3 kDa cutoff centrifugal filter (Millipore). […]. For both conditions, the products and controls were collected and analyzed with High Performance Liquid Chromatography system (UltiMate 3000, Thermo Scientific) equipped with the C18 column (4.6 × 100 mm, […], Thermo Scientific) and C18 column, (15 cm × 4.6 mm, […], Supelco), for the first and second conditions, respectively.

Csa3Sso-E122A = biological target: T7, Csa3Sso-E122A (Saccharolobus solfataricus, UniProt Q97Y88, E122A); experiment: Ring nuclease activity assay (C18 HPLC), Csa3Sso-E122A; type: biochemical; details: 5 μM E122A mutant, 500 μM cA4, 60 °C, 3 h, Fig. S5C
T7 construct: made in house; host or cells: E. coli BL21(DE3)-pLysS (pET21b)
Experimental: as §3

Csa3Sso-E122Q = biological target: T8, Csa3Sso-E122Q (Saccharolobus solfataricus, UniProt Q97Y88, E122Q); experiment: Ring nuclease activity assay (C18 HPLC), Csa3Sso-E122Q; type: biochemical; details: 5 μM E122Q mutant, 500 μM cA4, 60 °C, 3 h, Fig. S5C
T8 construct: made in house; host or cells: E. coli BL21(DE3)-pLysS (pET21b)
Experimental: as §3

His6-Csa3Sso (WT) [3] = biological target: T1, His6-Csa3Sso (WT); experiment: MST binding of PCas4a promoter DNA to Csa3Sso with or without cOAs; details: 50-fold excess of cOA (25 μM)
Experimental: The MST experiment and data analysis for ligand-induced changes in Csa3Sso binding affinity with PCas4a was performed as mentioned above except for the following: 1 μM of His6-Csa3Sso (WT) was fluorescently labeled in 2× binding buffer with 40 nM RED-Tris NTA His-Tag labeling dye in the absence or presence of cA4 or cA6. The labeling mixtures were incubated in the dark at room temperature for 30 min. A 50 μM stock of PCas4a was serially diluted in 1:1 ratios with nuclease-free water. The labeled proteins ± ligands were then mixed with diluted PCas4a in a 1:1 ratio and incubated in the dark at room temperature for 30 min. The supernatants obtained after removal of precipitated material were then loaded into Monolith NT.115 Series Premium capillaries in triplicate, and the thermophoresis was detected with 100% excitation power and 60% IR-laser power for an on-time of 20 s at 25 °C.
as §2

[4] = biological target: T9, Csa3Sso–PCas4a complex precipitates (Saccharolobus solfataricus, UniProt Q97Y88); experiment: Visual precipitation of Csa3Sso–PCas4a complexes in tubes, wildtype; details: 50 μM Csa3Sso WT, 10 μM PCas4a, 500 μM cA4, 30 min, 20 °C
T9 construct: made in house; host or cells: E. coli BL21(DE3)-pLysS
T9 sequence (Q97Y88 1-237): T1 sequence (Q97Y88 1-237)
Description: (§4) […]. The DNA fragment docked onto protomer A in the cA4-bound Csa3Sso dimer sterically clashed with a region in the CARF domain from protomer B in this dimer (encircled by a red dotted circle). […] To obtain these models, wHTH domains of B. subtilis OhrR (PDB code: 1Z9C ([71]), RMSD: 1.7 Å) were individually superimposed onto wHTH domains of the Csa3Sso dimer and OhrR was omitted from the view for clarity. A single and straight model of B-form DNA with two copies of the palindromes could not be modeled with the apo Csa3Sso dimer owing to a slight misorientation (not shown) between Csa3Sso wHTH domains (possibly requiring a bend in the DNA). B, precipitation of Csa3Sso in the presence of PCas4a DNA and its solubilization by cA4 binding to the Csa3Sso CARF domain. […]. Cy5-labeled PCas4a, 50 nM, was added to different Csa3Sso concentrations ranging from 500 nM to 25 μM in the presence or absence of cA4 added in a 50:1 ratio of cA4:Csa3Sso. […].

[5] = biological target: T10, Csa3Sso-R98A mutant with PCas4a DNA (Saccharolobus solfataricus, UniProt Q97Y88, R98A); experiment: Visual precipitation of Csa3Sso-R98A with PCas4a DNA in tubes; details: 50 μM Csa3Sso R98A, 10 μM PCas4a, 500 μM cA4, 30 min, 20 °C
T10 construct: made in house; host or cells: E. coli BL21(DE3)-pLysS (pBB75)
Description: as §4

Csa3Sso–PCas4a complex = Csa3Sso–PCas4a complex (Saccharolobus solfataricus, UniProt Q97Y88)
Experimental: Top and bottom DNA oligonucleotide strands used for EMSA were purchased from Sigma-Aldrich (Table S2). The oligonucleotide strands were annealed by mixing them in 1:1 molar ratio followed by heating at 98 °C for the unlabeled, or 70 °C for the Cy5-labeled, DNA fragments for 15 min. Slow cooling to room temperature was used to anneal the fragments. Unlabeled probe-containing samples used for Fig. S8C were electrophoresed using a 2% (w/v) agarose Tris-Borate-EDTA (TBE) gel at 100 V for 30 min at room temperature. Probes were stained with ethidium bromide and visualized using Gel Doc XR+ Molecular Imager (Bio-Rad). […] The Cy5-labeled probes were electrophoresed in a 5% acrylamide TBE gel at 100 V for 1 h at 4 °C. DNA bands were visualized using FluorChem R gel imager (Protein Simple, Inc).

[6] = biological target: Treponema succinifaciens Card1; design: method as in PMID 33461211; details: cited from earlier work

T8 sequence (Q97Y88 whole entry E122Q): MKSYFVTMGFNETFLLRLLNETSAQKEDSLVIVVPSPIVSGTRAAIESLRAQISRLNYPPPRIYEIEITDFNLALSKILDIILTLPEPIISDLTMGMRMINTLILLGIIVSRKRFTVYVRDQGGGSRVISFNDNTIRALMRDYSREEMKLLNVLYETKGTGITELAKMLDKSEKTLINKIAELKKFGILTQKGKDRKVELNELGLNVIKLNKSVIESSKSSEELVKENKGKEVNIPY
T7 sequence (Q97Y88 whole entry E122A): as the sequence (Q97Y88 whole entry E122Q) above, with Q122A counted along it
T3 sequence (Q97Y88 whole entry F14A): as the sequence (Q97Y88 whole entry E122Q) above, with F14A, Q122E counted along it
T2 sequence (Q97Y88 whole entry F10A): as the sequence (Q97Y88 whole entry E122Q) above, with F10A, Q122E counted along it
T10 sequence (Q97Y88 whole entry R98A): as the sequence (Q97Y88 whole entry E122Q) above, with R98A, Q122E counted along it
T5 sequence (Q97Y88 whole entry R98A): as the sequence (Q97Y88 whole entry E122Q) above, with R98A, Q122E counted along it
T4 sequence (Q97Y88 whole entry G96A): as the sequence (Q97Y88 whole entry E122Q) above, with G96A, Q122E counted along it

Compound | specific binding to His6-Csa3Sso (His6-Csa3Sso (WT) [1]; MST) | Kd (Csa3bSis) | fold increase in Csa3bSis binding affinity to the Pcsa1 promoter [2] | fold stronger binding of His6-Csa3Sso to cA4 than Csa3bSis to the linear cA4 analog (His6-Csa3Sso (WT) [1]; MST KD vs SPR KD of ref 57) | cA4 binding (Csa3Sso F10A mutant) | cA4 binding (Csa3Sso F14A mutant) | cA4 binding (Csa3Sso G96A mutant) | cA4 binding (Csa3Sso R98A mutant) | cA4 hydrolysis (ring nuclease activity) (Csa3Sso; 5 μM Csa3Sso, 500 μM cA4, buffer G, 60 °C, Fig. 6) | cA4 hydrolysis (ring nuclease activity) (Csa3Sso; 50 µM Csa3Sso, 250 µM cA4, buffer G or binding buffer, 55 °C, Fig. S5 A, B) | cA4 hydrolysis (ring nuclease activity) (Csa3Sso-E122A) | cA4 hydrolysis (ring nuclease activity) (Csa3Sso-E122Q) | effect of excess cOA on PCas4a binding affinity of Csa3Sso (His6-Csa3Sso (WT) [3]) | effect on formation of Csa3Sso–PCas4a complex precipitates [4] | rescue of Csa3Sso-R98A from precipitating with DNA [5] | effect on levels of soluble Csa3Sso–DNA complex (shifted band) (Csa3Sso–PCas4a complex) | Kd [6]
5′-rCrArArArA-3′ [5′CAAAA3′] | only cA4 exhibited a specific low micromolar binding | 46.1 ± 8.14 µM | ~10 fold | – | – | – | – | – | – | – | – | – | – | – | – | – | –
Nc1ncnc2c1ncn2[C@@H]1O[C@@H]2COP(=O)(O)O[C@H]3[C@@H](O)[C@H](n4cnc5c(N)ncnc54)O[C@@H]3COP(=O)(O)O[C@H]3[C@@H](O)[C@H](n4cnc5c(N)ncnc54)O[C@@H]3COP(=O)(O)O[C@H]3[C@@H](O)[C@H](n4cnc5c(N)ncnc54)O[C@@H]3COP(=O)(O)O[C@H]2[C@H]1O [cA4, cyclic tetra-adenylate] | – | – | – | 8 fold | complete loss of cA4 binding | complete loss of cA4 binding | completely lost the ability to bind cA4 | completely lost cA4 binding | no sign of cA4 hydrolysis products; also recorded: No changes in the time-dependent stability of cA4 | No changes | did not exhibit any gain of ring nuclease activity; also recorded: no ring nuclease activity was observed | did not exhibit any gain of ring nuclease activity; also recorded: no ring nuclease activity was observed | no significant effect; also recorded: did not significantly change | prevented their formation | could not rescue | no effect | 0.015 µM
